In one assay the test system is breast cancer carcinoma. The following applies: cited from earlier work.
A further assay has as its system A549. Put plainly: Cytotoxicity assay, SRB colorimetric assay. The format is cell-based. The following applies: Homo sapiens; for GI50: concentration that produces 50% growth inhibition; for LC50 (50% net cell killing): read-out: LC50; for IC (TGI): total growth inhibition (cytostatic effect). From the text:
(§1) The aim of this assay is to evaluate the in vitro cytostatic (ability to delay or arrest tumor cell growth) or cytotoxic (ability to kill tumor cells) activity of the samples being tested.
(§2) Evaluation of Cytotoxic Activity Using the SBR Colorimetric Assay
(§3) A colorimetric type of assay, using sulforhodamine B (SRB) reaction has been adapted for a quantitative measurement of cell growth and viability (following the technique described by Skehan P et al. J. Natl. Cancer Inst. 1990, 82, 1107-1112).
(§4) This form of assay employs SBS-standard 96-well cell culture microplates (Faircloth et al. Methods in Cell Science, 1988, 11(4), 201-205; Mosmann et al, Journal of Immunological. Methods, 1983, 65(1-2), 55-63). All the cell lines used in this study, derived from different types of human cancer, were obtained from the American Type Culture Collection (ATCC).
(§5) Cells were maintained in Dulbecco's Modified Eagle Medium (DMEM) supplemented with 10% Fetal Bovine Serum (FBS), 2 mM L-glutamine, 100 U/mL penicillin and 100 U/mL streptomycin at 37° C., 5% CO2 and 98% humidity. For the experiments, cells were harvested from subconfluent cultures using trypsinization and resuspended in fresh medium before counting and plating.
(§6) Cells were seeded in 96 well microtiter plates at 5×10^3 cells per well in aliquots of 150 μL, and allowed to attach to the plate surface for 18 hours in drug free medium. One control (untreated) plate of each cell line was fixed (as described below) and used for time zero reference value. Afterwards, test samples were added to the cultures in ten serial dilutions, in aliquots of 50 μL, ranging from 10 to 0.00262 μg/mL. After 48 hours exposure, the antitumor effect was estimated by the SRB method: Briefly, cells were washed twice with PBS, fixed for 15 min in 1% glutaraldehyde solution, rinsed twice in PBS, and stained in 0.4% SRB solution for 30 min at room temperature. Cells were then rinsed several times with 1% acetic acid solution and air-dried. SRB was then extracted in 10 mM trizma base solution and the absorbance measured in an automated spectrophotometric plate reader at 490 nm. Cell survival was expressed as percentage of control cell growth. The final effect of the sample being tested was estimated by applying the NCI algorithm (Boyd M R and Paull K D. Drug Dev. Res. 1995, 34, 91-104).
(§7) Using the mean±SD of triplicate cultures, a dose-response curve was automatically generated using nonlinear regression analysis. Three reference parameters were calculated (NCI algorithm) by automatic interpolation: GI50=concentration that produces 50% growth inhibition; TGI=total growth inhibition (cytostatic effect) and LC50=concentration that produces 50% net cell killing (cytotoxic effect).
On the technique in general: The SRB assay estimates cell density from bound dye.

Another assay concerns HT29. Description: Cytotoxicity assay, SRB colorimetric assay. The format is cell-based. The following applies: Homo sapiens; for GI50: concentration that produces 50% growth inhibition; for IC (TGI): total growth inhibition (cytostatic effect).
From the text: as §1, §2, §3, §4, §5, §6, §7

In another assay the test system is MDA-MB-231. Put plainly: Cytotoxicity assay, SRB colorimetric assay. The following applies: Homo sapiens; for GI50: concentration that produces 50% growth inhibition; for IC (TGI): total growth inhibition (cytostatic effect). The format is cell-based.
From the text: as §1, §2, §3, §4, §5, §6, §7

The subject of the next assay is Saccharomyces cerevisiae. The following applies: fungus Saccharomyces cerevisiae; cited from earlier work.
Assay [1] has as its system L929 mouse fibroblast cell culture. The following applies: toxicity toward L929 mouse fibroblast cell culture; cited from earlier work.
Where [2] appears, read: A549, 48 hours exposure, concentration that produces 50% net cell killing (cytotoxic effect).
The mark [3] stands for this setting: HT-29, HT29, 48 hours exposure, concentration that produces 50% net cell killing (cytotoxic effect), read-out: LC50 (the source's name).
[4] abbreviates: MDA-MB-231, 48 hours exposure, concentration that produces 50% net cell killing (cytotoxic effect), read-out: LC50 (the source's name).
Setting [5] is: MDA-MB-231, 48 h, read-out: LC50.

≈ marks a conversion by molar mass, not a printed value. Read-outs that look alike come from different tables or passages of the source.

Consider `C=C/C=C\[C@H](C)[C@H](OC(N)=O)[C@@H](C)[C@H](O)[C@@H](C)C/C(C)=C\[C@H](C)[C@@H](O)[C@@H](C)/C=C\[C@@H](O)C[C@@H]1OC(=O)[C@H](C)[C@@H](O)[C@H]1C` (single isomer, unassigned) [(+)-discodermolide], for which, in the assay on breast cancer carcinoma, the IC50 (commonly the point on the concentration scale where inhibition reaches its midpoint) is 2.4 nM.

Take `COc1cc(/C=C(C)/C=C\C=C/C(=O)N[C@H](C(=O)N/C=C\C[C@H](C/C=C(\C)Cl)O[Si](C)(C)C(C)(C)C)C(C)(C)C)ccc1O[Si](C)(C)C(C)(C)C` [Compound 30]: the GI50 (commonly the concentration giving 50% growth inhibition) was found to be 671 nM with A549 (A549, 48 hours exposure); 777 nM in the assay with HT29 (HT-29, HT29, 48 hours exposure); 764 nM with MDA-MB-231 (MDA-MB-231, 48 hours exposure). For the same compound, in the assay on A549 (setting [2]), the LC50 (50% net cell killing) came to 908 nM. Also, the IC (TGI) with A549 (A549, 48 hours exposure) was 764 nM; in the assay with HT29 (HT-29, HT29, 48 hours exposure) it was 816 nM; with MDA-MB-231 (MDA-MB-231, 48 hours exposure) it was 974 nM. Also, the CC50 in the assay with HT29 (setting [3]) is 869 nM; in the assay with MDA-MB-231 (setting [4]), 1260 nM.

Turning to `C/C(Cl)=C\C[C@@H](C/C=C\NC(=O)[C@@H](NC(=O)\C=C/C=C\C(C)=C\Cc1ccccc1)C(C)(C)C)O[Si](C)(C)C(C)(C)C` [Compound 32], the GI50 in the assay on A549 (A549, 48 hours exposure) was 490 nM; with HT29 (HT-29, HT29, 48 hours exposure) it was 490 nM; in the assay with MDA-MB-231 (MDA-MB-231, 48 hours exposure), 833 nM. The LC50 (50% net cell killing) in the assay on A549 (setting [2]) turned out to be 1060 nM. Besides, the IC (TGI) was determined as 686 nM with A549 (A549, 48 hours exposure); 621 nM in the assay with HT29 (HT-29, HT29, 48 hours exposure); 1110 nM with MDA-MB-231 (MDA-MB-231, 48 hours exposure). For the same compound, the CC50 in the assay with HT29 (setting [3]) turned out to be 849 nM; in the assay with MDA-MB-231 (setting [4]), 1500 nM.

For the compound `C/C(Cl)=C\C[C@H](O)C/C=C\NC(=O)[C@@H](NC(=O)\C=C/C=C\C(C)=C\Cc1ccccc1)C(C)(C)C` [Compound 33], the LC50 (50% net cell killing) in the assay on A549 (A549, 48 h) came to 7410 nM. For the same compound, the GI50 was found to be 1580 nM in the assay with A549 (A549, 48 hours exposure); 1100 nM in the assay with HT29 (HT-29, HT29, 48 hours exposure); 3010 nM with MDA-MB-231 (MDA-MB-231, 48 hours exposure). Besides, the IC (TGI) in the assay on A549 (A549, 48 hours exposure) amounted to 3410 nM; with HT29 (HT-29, HT29, 48 hours exposure), 1820 nM; with MDA-MB-231 (MDA-MB-231, 48 hours exposure) it was 4810 nM. Further, the CC50 with HT29 (HT-29, 48 h, read-out: LC50) stood at 3810 nM; in the assay on MDA-MB-231 (setting [5]) it was 8010 nM.

Take `C/C(Cl)=C\C[C@@H](C/C=C\NC(=O)[C@@H](NC(=O)\C=C/C=C\C(C)=C\Cc1ccccc1)C(C)(C)C)OC(N)=O` [Compound 34]: the LC50 (50% net cell killing) with A549 (A549, 48 h) was more than 18400 nM. In addition, the GI50 in the assay on A549 (A549, 48 hours exposure) worked out at 701 nM; with HT29 (HT-29, HT29, 48 hours exposure), 443 nM; in the assay on MDA-MB-231 (MDA-MB-231, 48 hours exposure), 1030 nM. Besides, the IC (TGI) in the assay with A549 (A549, 48 hours exposure) was 2770 nM; in the assay with HT29 (HT-29, HT29, 48 hours exposure), 572 nM; in the assay on MDA-MB-231 (MDA-MB-231, 48 hours exposure) it was 4430 nM. For the same compound, the CC50 in the assay with HT29 (HT-29, 48 h, read-out: LC50) was 904 nM; with MDA-MB-231 (setting [5]) it was more than 18400 nM.

Take `C=CCCOC(=O)[C@@H](NC(=O)\C=C/C=C\C(C)=C\c1ccc(O)c(OC)c1)C(C)(C)C` [Compound 36]: the GI50 turned out to be 3270 nM in the assay on A549 (A549, 48 hours exposure); 1960 nM in the assay with HT29 (HT-29, HT29, 48 hours exposure); 1150 nM with MDA-MB-231 (MDA-MB-231, 48 hours exposure). Further, in the assay with A549 (setting [2]), the LC50 (50% net cell killing) was more than 23400 nM. The IC (TGI) with A549 (A549, 48 hours exposure) is more than 23400 nM; with HT29 (HT-29, HT29, 48 hours exposure), 7950 nM; in the assay on MDA-MB-231 (MDA-MB-231, 48 hours exposure), 2570 nM. For the same compound, the CC50 is more than 23400 nM in the assay on HT29 (setting [3]) and 19200 nM in the assay on MDA-MB-231 (setting [4]).

In the case of `C/C(Cl)=C\C[C@@H](C/C=C\NC(=O)[C@@H](NC(=O)\C=C/C=C\C(C)=C\[C@H](C)c1ccccc1)C(C)(C)C)O[Si](C)(C)C(C)(C)C` [Compound 37], the GI50 in the assay with A549 (A549, 48 hours exposure) was 2870 nM; with HT29 (HT-29, HT29, 48 hours exposure) it was 3670 nM; in the assay on MDA-MB-231 (MDA-MB-231, 48 hours exposure), 5260 nM. For the same compound, the LC50 (50% net cell killing) in the assay on A549 (setting [2]) turned out to be 10800 nM. The IC (TGI) in the assay with A549 (A549, 48 hours exposure) was 5900 nM; in the assay on HT29 (HT-29, HT29, 48 hours exposure) it was 4460 nM; with MDA-MB-231 (MDA-MB-231, 48 hours exposure), 7010 nM. Further, the CC50 worked out at 5900 nM with HT29 (setting [3]) and 9400 nM with MDA-MB-231 (setting [4]).

Take `C/C(Cl)=C\C[C@H](O)C/C=C\NC(=O)[C@@H](NC(=O)\C=C/C=C\C(C)=C\[C@H](C)c1ccccc1)C(C)(C)C` [Compound 38]: the LC50 (50% net cell killing) with A549 (A549, 48 h) was more than 19500 nM. Also, the GI50 was 1810 nM with A549 (A549, 48 hours exposure); 1090 nM with HT29 (HT-29, HT29, 48 hours exposure); 2140 nM with MDA-MB-231 (MDA-MB-231, 48 hours exposure). Further, the IC (TGI) with A549 (A549, 48 hours exposure) was found to be 4870 nM; in the assay with HT29 (HT-29, HT29, 48 hours exposure), 1520 nM; in the assay on MDA-MB-231 (MDA-MB-231, 48 hours exposure), 4480 nM. Also, the CC50 in the assay with HT29 (HT-29, 48 h, read-out: LC50) was 4680 nM; in the assay with MDA-MB-231 (setting [5]), more than 19500 nM.

For `C/C(Cl)=C\C[C@@H](C/C=C\NC(=O)[C@@H](NC(=O)\C=C/C=C\C(C)=C\[C@H](C)c1ccccc1)C(C)(C)C)OC(N)=O` [Compound 39], the LC50 (50% net cell killing) with A549 (A549, 48 h) was more than 18000 nM. Also, the GI50 with A549 (A549, 48 hours exposure) is 55.7 nM; in the assay on HT29 (HT-29, HT29, 48 hours exposure), 36 nM; with MDA-MB-231 (MDA-MB-231, 48 hours exposure), 91.7 nM. Moreover, the IC (TGI) was more than 18000 nM with A549 (A549, 48 hours exposure); 59.3 nM in the assay on HT29 (HT-29, HT29, 48 hours exposure); 270 nM in the assay with MDA-MB-231 (MDA-MB-231, 48 hours exposure). In addition, the CC50 in the assay on HT29 (HT-29, 48 h, read-out: LC50) was 360 nM; in the assay with MDA-MB-231 (setting [5]), more than 18000 nM.

`COC(=O)CNC(=O)CCC/C=C\NC(=O)/C=C(C)/C=C/[C@H](C)[C@H](OC)[C@H](C)[C@H](/C=C/c1ccccc1)OC` [crocacin D]: the MIC – broadly, the least concentration at which growth counts as inhibited – with Saccharomyces cerevisiae was 0.0014 µg/mL (≈ 0.00259 µM). Also, in assay [1], the half-maximal inhibitory concentration (IC50) is 0.06 µg/mL (≈ 0.111 µM).

Turning to `CC(=O)O[C@H]1C(=O)[C@@]2(C)[C@H]([C@H](OC(=O)c3ccccc3)[C@]3(O)C[C@H](OC(=O)[C@H](O)[C@@H](NC(=O)c4ccccc4)c4ccccc4)C(C)=C1C3(C)C)[C@]1(OC(C)=O)CO[C@@H]1C[C@@H]2O` [paclitaxel], the IC50 in the assay with breast cancer carcinoma is 2.1 nM.

Values taken from US8710264B2, “Antitumoral compounds” (priority 2007, dated 2014).
